Experimental data as given in patent US9290792B2, “Method for measuring calcineurin activity” (UNIVERSITE PARIS DESCARTES, priority 2012, dated 2016).

Key:
[1] = tested on: kinases present in the cellular extracts (PBMC); experiment: Calcineurin kinetic experiments in PBMC cytosolic proteins in the presence or absence of kinase inhibitors (LC-MS/MS of DP-RII peptide); assay type: biochemical, human; details: 5 μg PBMC cytosolic proteins from healthy volunteers, FIG. 1; for production of DP-RII peptide vs control: 37° C., up to 120 min, 500 nM okadaic acid, ANOVA test
Experimental: FIG. 1: Calcineurin kinetic experiments were performed in the presence or absence of two different kinase inhibitors. The production of DP-RII peptide was quantified using LC-MS/MS analysis.
PBMCs obtained from either healthy volunteers or transplant patients were resuspended in a buffer containing 50 mM Tris, pH=7.0, 0.1 mM EGTA, 0.05 mM dithiothreitol, 0.1% tween 20, 0.3 mg/mL albumin, 1 mM MnCl2, 1 mM CaCl2 and protease inhibitors. These cellular extracts were sonicated on ice, and centrifuged for 30 minutes at 10.000 g at 4° C. The supernatants corresponding primarily to the cytosolic fractions were recovered and their protein content was determined. These cellular extracts can be stored at −80° C. for later measurement of CN activity.
One to 5 μg of proteins obtained from PBMC, prepared as described above, were used for measuring calcineurin activity in a reaction mixture containing 500 nM okadaic acid, 1 mg/L internal standard, 20 μM H89, 8 mg/L phosphorylated RII peptide and 0.03 units calmodulin in 15 μL 50 mM Tris-HCl, pH=7.0. Enzymatic reaction was carried out at 37° C. for 30 min and then, the reaction tubes were cooled on ice and the enzymatic reaction was stopped by addition of 15 μL of a solution of 5% trichloroacetic acid. After centrifugation for 5 minutes at 12.000 g at 4° C., supernatants were transferred to […] into 1.5 mL glass autoinjector vials and kept at 4° C. in autosampler before injection. […]
The inventors assessed the kinetics of calcineurin in the presence or not of 2 different kinase inhibitors: H89, an unspecific inhibitor and Rp-adenosine 3′,5′-cyclic monophosphorothioate, a specific inhibitor of PKA.
A first set of experiments was performed using 5 μg of PBMC cytosolic proteins issued from healthy volunteers. […] The enzymatic reactions were stopped at the indicated time points (up to 120 min) and peptide amounts were quantified by LC-MS/MS.

[2] = target: protein phosphatase 2A (PP-2A); details: cited from earlier work
[3] = target: protein phosphatase 2B (PP-2B); details: cited from earlier work
[4] = target: protein phosphatase 1 (PP-1); details: cited from earlier work

Compound: O=S(=O)(NCCNC/C=C/c1ccc(Br)cc1)c1cccc2cnccc12 [H89]
- production of DP-RII peptide vs control [1]: significantly higher
- inhibition obtained vs that obtained with the PKA specific inhibitor ([1]; p=0.0163): significantly higher

Compound: C=C1[C@@H](O)[C@@H]2O[C@]3(CC[C@H](/C=C/[C@@H](C)[C@@H]4CC(C)=C[C@@]5(O[C@H](C[C@@](C)(O)C(=O)O)CC[C@H]5O)O4)O3)CC[C@H]2O[C@@H]1[C@@H](O)C[C@H](C)[C@H]1O[C@@]2(CCCCO2)CC[C@H]1C [Okadaic acid, 9,10-Deepithio-9,10-didehydroacanthifolicin]
- IC50 [2]: 0.1 to 1 nM
- IC50 [3]: > 5000 nM
- IC50 [4]: 20 to 100 nM

Compound: Nc1ncnc2c1ncn2[C@@H]1O[C@@H]2COP(O)(=S)O[C@H]2[C@H]1O (stereo partly drawn) [PKA specific inhibitor, Rp-adenosine 3′,5′-cyclic monophosphorothioate]
- production of DP-RII peptide vs control [1]: significantly higher
